Results as given in the supplement of paper PMC9663587.

Tests used:
BSJ-03-123 = compound: CC(=O)c1c(C)c2cnc(Nc3ccc(N4CCN(CCOCCOCCOCCNC(=O)COc5cccc6c5C(=O)N(C5CCC(=O)NC5=O)C6=O)CC4)cn3)nc2n(C2CCCC2)c1=O [BSJ-03-123]; test: increase in dead-cell fraction, 72 h; higher = more death;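 further: breast cancer cell lines in 384-well plates, stained with Hoechst plus LIVE/DEAD far red dye and imaged, cells above an LDR intensity threshold counted dead, Hoechst-negative corpses included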
[1] = compound: CC(=O)c1c(C)c2cnc(Nc3ccc(N4CCNCC4)cn3)nc2n(C2CCCC2)c1=O; test: as above
[2] = compound: CCN1CCN(Cc2ccc(Nc3ncc(F)c(-c4cc(F)c5nc(C)n(C(C)C)c5c4)n3)nc2)CC1; test: as above
Neratinib/HKI272 = compound: CCOc1cc2ncc(C#N)c(Nc3ccc(OCc4ccccn4)c(Cl)c3)c2cc1NC(=O)/C=C/CN(C)C [Neratinib/HKI272]; test: as above
[3] = compound: CCc1cnn2c(NCc3ccc[n+]([O-])c3)cc(N3CCCC[C@H]3CCO)nc12; test: as above
LEE011/Ribociclib = compound: CN(C)C(=O)c1cc2cnc(Nc3ccc(N4CCNCC4)cn3)nc2n1C1CCCC1 [LEE011/Ribociclib]; test: as above
THZ1 [4] = compound: T1, CN(C)C/C=C/C(=O)Nc1ccc(C(=O)Nc2cccc(Nc3ncc(Cl)c(-c4c[nH]c5ccccc45)n3)c2)cc1 [THZ1]; test: as above
Flavopiridol [5] = compound: T2, CN1CC[C@H](c2c(O)cc(O)c3c(=O)cc(-c4ccccc4Cl)oc23)[C@H](O)C1 [Flavopiridol]; test: as above
[6] = compound: CC(=O)c1c(C)c2cnc(Nc3ccc(N4CCNCC4)cn3)nc2n(C2CCCC2)c1=O; test: GR value, 72 h; higher = faster growth (1 = untreated, <0 = killing);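 further: breast cancer and non-malignant breast epithelial lines, nine half-log doses, viable cells counted by Hoechst and LIVE/DEAD dye imaging versus time-zero plates and DMSO controls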
THZ531 = compound: CN(C)C/C=C/C(=O)Nc1ccc(C(=O)N2CCC[C@@H](Nc3ncc(Cl)c(-c4c[nH]c5ccccc45)n3)C2)cc1 [THZ531]; test: as above
THZ1 [7] = compound: T1, THZ1; test: as above
Flavopiridol [8] = compound: T2, Flavopiridol; test: as above

MDAMB415
increase in dead-cell fraction (BSJ-03-123; 0.001 µM): -0.001
increase in dead-cell fraction (BSJ-03-123; 0.003162 µM): 0.0018
increase in dead-cell fraction (BSJ-03-123; 0.01 µM): 0.0044
increase in dead-cell fraction (BSJ-03-123; 0.03162 µM): 0.0034
increase in dead-cell fraction (BSJ-03-123; 0.1 µM): 0.0066
increase in dead-cell fraction (BSJ-03-123; 0.3162 µM): 0.0057
increase in dead-cell fraction (BSJ-03-123; 1 µM): 0.0048
increase in dead-cell fraction (BSJ-03-123; 3.162 µM): 0.0092
increase in dead-cell fraction (BSJ-03-123; 10 µM): 0.0219
increase in dead-cell fraction ([1]; 0.0003162 µM): 0.0016
increase in dead-cell fraction ([1]; 0.001 µM): -0.0037
increase in dead-cell fraction ([1]; 0.003162 µM): 0.0018
increase in dead-cell fraction ([1]; 0.01 µM): -0.0004
increase in dead-cell fraction ([1]; 0.03162 µM): 0.0059
increase in dead-cell fraction ([1]; 0.1 µM): 0.0074
increase in dead-cell fraction ([1]; 0.3162 µM): 0.0128
increase in dead-cell fraction ([1]; 1 µM): 0.0178
increase in dead-cell fraction ([1]; 3.162 µM): 0.0141
increase in dead-cell fraction ([2]; 0.001 µM): 0.0027
increase in dead-cell fraction ([2]; 0.003162 µM): 0.004
increase in dead-cell fraction ([2]; 0.01 µM): 0.0062
increase in dead-cell fraction ([2]; 0.03162 µM): 0.015
increase in dead-cell fraction ([2]; 0.1 µM): 0.0137
increase in dead-cell fraction ([2]; 0.3162 µM): 0.021
increase in dead-cell fraction ([2]; 1 µM): 0.0176
increase in dead-cell fraction ([2]; 3.162 µM): 0.0092
increase in dead-cell fraction ([2]; 10 µM): 0.0164
increase in dead-cell fraction (Neratinib/HKI272; 0.0003162 µM): -0.0004
increase in dead-cell fraction (Neratinib/HKI272; 0.001 µM): 0
increase in dead-cell fraction (Neratinib/HKI272; 0.003162 µM): 0.0031
increase in dead-cell fraction (Neratinib/HKI272; 0.01 µM): -0.0015
increase in dead-cell fraction (Neratinib/HKI272; 0.03162 µM): 0.0006
increase in dead-cell fraction (Neratinib/HKI272; 0.1 µM): 0.0036
increase in dead-cell fraction (Neratinib/HKI272; 0.3162 µM): 0.0023
increase in dead-cell fraction (Neratinib/HKI272; 1 µM): 0.0057
increase in dead-cell fraction (Neratinib/HKI272; 3.162 µM): 0.017
increase in dead-cell fraction ([3]; 0.0001 µM): -0.001
increase in dead-cell fraction ([3]; 0.0003162 µM): 0.0007
increase in dead-cell fraction ([3]; 0.001 µM): -0.0017
increase in dead-cell fraction ([3]; 0.003162 µM): 0.0007
increase in dead-cell fraction ([3]; 0.01 µM): 0.0031
increase in dead-cell fraction ([3]; 0.03162 µM): 0.0447
increase in dead-cell fraction ([3]; 0.1 µM): 0.152
increase in dead-cell fraction ([3]; 0.3162 µM): 0.12
increase in dead-cell fraction ([3]; 1 µM): 0.154
increase in dead-cell fraction (LEE011/Ribociclib; 0.001 µM): 0.0085
increase in dead-cell fraction (LEE011/Ribociclib; 0.003162 µM): 0.0083
increase in dead-cell fraction (LEE011/Ribociclib; 0.01 µM): 0.01
increase in dead-cell fraction (LEE011/Ribociclib; 0.03162 µM): 0.0117
increase in dead-cell fraction (LEE011/Ribociclib; 0.1 µM): 0.0179
increase in dead-cell fraction (LEE011/Ribociclib; 0.3162 µM): 0.0109
increase in dead-cell fraction (LEE011/Ribociclib; 1 µM): 0.0253
increase in dead-cell fraction (LEE011/Ribociclib; 3.162 µM): 0.0174
increase in dead-cell fraction (LEE011/Ribociclib; 10 µM): 0.0203
increase in dead-cell fraction (THZ1 [4]; 0.0001 µM): 0.0048
increase in dead-cell fraction (THZ1 [4]; 0.0003162 µM): 0.0014
increase in dead-cell fraction (THZ1 [4]; 0.001 µM): 0.0046
increase in dead-cell fraction (THZ1 [4]; 0.003162 µM): -0.0013
increase in dead-cell fraction (THZ1 [4]; 0.01 µM): 0.0061
increase in dead-cell fraction (THZ1 [4]; 0.03162 µM): 0.0106
increase in dead-cell fraction (THZ1 [4]; 0.1 µM): 0.0295
increase in dead-cell fraction (THZ1 [4]; 0.3162 µM): 0.0604
increase in dead-cell fraction (THZ1 [4]; 1 µM): 0.13
increase in dead-cell fraction (Flavopiridol [5]; 0.0001 µM): 0.0065
increase in dead-cell fraction (Flavopiridol [5]; 0.0003162 µM): 0.0005
increase in dead-cell fraction (Flavopiridol [5]; 0.001 µM): 0.0075
increase in dead-cell fraction (Flavopiridol [5]; 0.003162 µM): 0.0004
increase in dead-cell fraction (Flavopiridol [5]; 0.01 µM): -0.0008
increase in dead-cell fraction (Flavopiridol [5]; 0.03162 µM): 0.002
increase in dead-cell fraction (Flavopiridol [5]; 0.1 µM): 0.0078
increase in dead-cell fraction (Flavopiridol [5]; 0.3162 µM): 0.0072
increase in dead-cell fraction (Flavopiridol [5]; 1 µM): 0.0932
GR value ([6]; 0.0003162 µM): 0.995 GR
GR value ([6]; 0.001 µM): 0.983 GR
GR value ([6]; 0.003162 µM): 0.933 GR
GR value ([6]; 0.01 µM): 0.791 GR
GR value ([6]; 0.03162 µM): 0.498 GR
GR value ([6]; 0.1 µM): 0.298 GR
GR value ([6]; 0.3162 µM): 0.17 GR
GR value ([6]; 1 µM): 0.178 GR
GR value ([6]; 3.162 µM): 0.121 GR
GR value (THZ531; 0.0001 µM): 0.975 GR
GR value (THZ531; 0.0003162 µM): 0.9 GR
GR value (THZ531; 0.001 µM): 0.875 GR
GR value (THZ531; 0.003162 µM): 1.05 GR
GR value (THZ531; 0.01 µM): 0.946 GR
GR value (THZ531; 0.03162 µM): 0.731 GR
GR value (THZ531; 0.1 µM): 0.0348 GR
GR value (THZ531; 0.3162 µM): -0.33 GR
GR value (THZ531; 1 µM): -0.343 GR
GR value (THZ1 [7]; 0.0001 µM): 0.979 GR
GR value (THZ1 [7]; 0.0003162 µM): 0.999 GR
GR value (THZ1 [7]; 0.001 µM): 0.995 GR
GR value (THZ1 [7]; 0.003162 µM): 0.857 GR
GR value (THZ1 [7]; 0.01 µM): 0.797 GR
GR value (THZ1 [7]; 0.03162 µM): 0.524 GR
GR value (THZ1 [7]; 0.1 µM): 0.216 GR
GR value (THZ1 [7]; 0.3162 µM): -0.218 GR
GR value (THZ1 [7]; 1 µM): -0.408 GR
GR value (Flavopiridol [8]; 0.0001 µM): 1 GR
GR value (Flavopiridol [8]; 0.0003162 µM): 1.01 GR
GR value (Flavopiridol [8]; 0.001 µM): 0.869 GR
GR value (Flavopiridol [8]; 0.003162 µM): 0.766 GR
GR value (Flavopiridol [8]; 0.01 µM): 0.972 GR
GR value (Flavopiridol [8]; 0.03162 µM): 0.821 GR
GR value (Flavopiridol [8]; 0.1 µM): 0.788 GR
GR value (Flavopiridol [8]; 0.3162 µM): 0.25 GR
GR value (Flavopiridol [8]; 1 µM): -0.298 GR
